Test results from patent US11000509B2, “Methods and compositions for daily ophthalmic administration of phentolamine to improve visual performance” (Ocuphire Pharma, Inc., priority 2013, dated 2021).
Structures can show the parent of a compound that is named as a salt. Marks after values point to notes of the source that are not given here.

System: eyes of patients with pupil size in dim light of greater than 7 mm
Assay: Example 2 clinical study: monocular low contrast visual acuity under photopic conditions (5% tint chart)
Format: in vivo, humans
Settings: for mean low contrast acuity compared to baseline: paired t-test
Experimental: Sixteen patients were randomized into four groups (of four subjects each). Each group was treated on three successive study visits separated by at least 4 days with one drop of ophthalmic oxymetazoline solution (Visine LR®) in each eye followed by one drop test article in each eye. The test article was a 0.2% (w/v) phentolamine mesylate solution, 0.4% (w/v) phentolamine mesylate solution, 0.8% (w/v) phentolamine mesylate solution, or placebo. Test articles contained the designed amount of phentolamine mesylate in a solution of Tears Naturale II® (from Alcon Labs). Placebo was just Tears Naturale II® (from Alcon Labs). Tears Naturale II® (from Alcon Labs) contains Dextran 70 (0.1% by weight), Hydroxypropyl Methylcellulose 2910 (0.3% by weight), Polyquarternium-1 (0.001% by weight), potassium chloride, water (purified), sodium borate, sodium chloride, and hydrochloric acid and/or sodium hydroxide as necessary to adjust the pH. The patients' eye redness and pupil diameters were recorded at baseline (i.e., prior to treatment administration), and at 30 minutes, 1 hour, 2 hours, 4 hours, and 8 hours after administration of test articles. The incidence of any treatment-emergent adverse events was also recorded. Total study duration was approximately nine hours.
Eye redness of patients' eyes was evaluated by the research assistant and recorded as a single integer of value 0 (no redness) to 4 (extreme redness) at baseline and each time point after treatment. Pupil diameters were measured to within 0.1 mm for each eye at baseline and each subsequent time point using a NeurOptics™ pupilometer. Monocular high contrast visual acuity was measured for each eye under photopic conditions at baseline and each subsequent time point in a darkened room using a Precision Vision™ High Contrast (100% tint) Visual Acuity Chart (Catalog #2102) backlit by the Precision Vision Illumination Box. Monocular low contrast visual acuity was measured for each eye under photopic conditions at baseline and each subsequent time point in a darkened room using a Precision Vision™ Low Contrast (5% tint) Visual Acuity Chart (Catalog #2186) backlit by the Precision Vision Illumination Box. Effect of treatment on glare was assessed using an experimental test method consisting of a panel with a high wattage central light emitting diode (LED) and a set of 7 lower wattage red LEDs radiating horizontally and vertically from the central light.
Comparisons of changes in mean values within treatment groups were tested for significance using two-tailed paired two sample t-tests with a threshold for significance set at p<0.01 (Bonferroni Correction for multiple paired t-tests). Differences between treatment groups with respect to mean values for pupil size over the course of the study were tested for significance using repeated measure ANOVA (which discards data from subjects lacking any data points). Differences in mean eye redness between treatment groups were evaluated using Kruskal-Wallis nonparametric testing. Differences in means between treatment groups at individual time points were tested for significance using one-way ANOVA.

[1] = 0.2% (w/v) solution, 30 min after treatment
[2] = 0.2% (w/v) solution, 1 hour after treatment
[3] = 0.2% (w/v) solution, 2 hours after treatment
[4] = 0.2% (w/v) solution, 4 hours after treatment
[5] = 0.2% (w/v) solution, 8 hours after treatment
[6] = 0.2% (w/v) solution, Baseline, prior to treatment
[7] = 0.4% (w/v) solution, 30 min after treatment
[8] = 0.4% (w/v) solution, 1 hour after treatment
[9] = 0.4% (w/v) solution, 2 hours after treatment
[10] = 0.4% (w/v) solution, 4 hours after treatment
[11] = 0.4% (w/v) solution, 8 hours after treatment
[12] = 0.4% (w/v) solution, Baseline, prior to treatment
[13] = 0.8% (w/v) solution, 30 min after treatment
[14] = 0.8% (w/v) solution, 1 hour after treatment
[15] = 0.8% (w/v) solution, 2 hours after treatment
[16] = 0.8% (w/v) solution, 4 hours after treatment
[17] = 0.8% (w/v) solution, 8 hours after treatment
[18] = 0.8% (w/v) solution, Baseline, prior to treatment

In the case of `Cc1ccc(N(CC2=NCCN2)c2cccc(O)c2)cc1` [Phentolamine Mesylate, phentolamine mesylate], the “Maximum low contrast visual acuity” value [1] is reported as −0.10 LogMar, the “Mean low contrast visual acuity” value [1] is reported as −0.35 LogMar and the “Minimum low contrast visual acuity” value [1] is reported as −0.78 LogMar. The “Maximum low contrast visual acuity” value [2] was −0.08 LogMar, the “Mean low contrast visual acuity” value [2] was −0.32 LogMar and the “Minimum low contrast visual acuity” value [2] was −0.80 LogMar. For the same compound, the “Maximum low contrast visual acuity” value [3] was −0.11 LogMar, the “Mean low contrast visual acuity” value [3] was −0.32 LogMar and the “Minimum low contrast visual acuity” value [3] was −0.74 LogMar. The “Maximum low contrast visual acuity” value [4] was 0.00 LogMar, the “Mean low contrast visual acuity” value [4] was −0.30 LogMar and the “Minimum low contrast visual acuity” value [4] was −0.76 LogMar. For the same compound, the “Maximum low contrast visual acuity” value [5] was −0.08 LogMar, the “Mean low contrast visual acuity” value [5] was −0.30^e LogMar and the “Minimum low contrast visual acuity” value [5] was −0.72 LogMar. The “Maximum low contrast visual acuity” value [6] was −0.06 LogMar, the “Mean low contrast visual acuity” value [6] was −0.34^d LogMar and the “Minimum low contrast visual acuity” value [6] was −0.80 LogMar. The “Maximum low contrast visual acuity” value [7] was 0.00 LogMar, the “Mean low contrast visual acuity” value [7] was −0.24 LogMar and the “Minimum low contrast visual acuity” value [7] was −0.70 LogMar. The “Maximum low contrast visual acuity” value [8] was −0.04 LogMar, the “Mean low contrast visual acuity” value [8] was −0.24 LogMar and the “Minimum low contrast visual acuity” value [8] was −0.78 LogMar. The “Maximum low contrast visual acuity” value [9] was 0.00 LogMar, the “Mean low contrast visual acuity” value [9] was −0.22 LogMar and the “Minimum low contrast visual acuity” value [9] was −0.64 LogMar. The “Maximum low contrast visual acuity” value [10] was 0.00 LogMar, the “Mean low contrast visual acuity” value [10] was −0.20 LogMar and the “Minimum low contrast visual acuity” value [10] was −0.70 LogMar. The “Maximum low contrast visual acuity” value [11] was 0.00 LogMar, the “Mean low contrast visual acuity” value [11] was −0.22 LogMar and the “Minimum low contrast visual acuity” value [11] was −0.64 LogMar. For the same compound, the “Maximum low contrast visual acuity” value [12] was −0.10 LogMar, the “Mean low contrast visual acuity” value [12] was −0.28 LogMar and the “Minimum low contrast visual acuity” value [12] was −0.74 LogMar. For the same compound, the “mean low contrast acuity compared to baseline” value (0.4% (w/v), 1, 2, 4, and 8 hours post treatment) was “significant increases”, the “Maximum low contrast visual acuity” value [13] was −0.02 LogMar and the “Mean low contrast visual acuity” value [13] was −0.28 LogMar. For the same compound, the “Minimum low contrast visual acuity” value [13] was −0.76 LogMar, the “Maximum low contrast visual acuity” value [14] was 0.00 LogMar and the “Mean low contrast visual acuity” value [14] was −0.25 LogMar. The “Minimum low contrast visual acuity” value [14] was −0.62 LogMar, the “Maximum low contrast visual acuity” value [15] was 0.00 LogMar and the “Mean low contrast visual acuity” value [15] was −0.22 LogMar. The “Minimum low contrast visual acuity” value [15] was −0.60 LogMar, the “Maximum low contrast visual acuity” value [16] was 0.00 LogMar and the “Mean low contrast visual acuity” value [16] was −0.22 LogMar. For the same compound, the “Minimum low contrast visual acuity” value [16] was −0.70 LogMar, the “Maximum low contrast visual acuity” value [17] was 0.00 LogMar and the “Mean low contrast visual acuity” value [17] was −0.25 LogMar. For the same compound, the “Minimum low contrast visual acuity” value [17] was −0.78 LogMar, the “Maximum low contrast visual acuity” value [18] was −0.11 LogMar and the “Mean low contrast visual acuity” value [18] was −0.34 LogMar. For the same compound, the “Minimum low contrast visual acuity” value [18] was −0.78 LogMar, the “mean low contrast acuity compared to baseline” value (0.8% (w/v), all post-treatment time points) was “significant increases” and the “maximal mean increase in low contrast visual acuity” value (0.8% (w/v), at 2 hours) was 0.12 Log Mar. The “improvement in low contrast vision” value (0.8% (w/v), at 2 hours, equivalent of the maximal mean increase) was ~6 letters on a Snellen chart and the “mean low contrast visual acuity, 0.2% (w/v) versus 0.4% and 0.8% (w/v) (ad hoc Fisher's test)” value (2 hours post-dosing, P<0.05) was “significant differences”.
